Data reported in article PMC9739180, “Discovery of a Flavonoid FM04 as a Potent Inhibitor to Reverse P-Glycoprotein-Mediated Drug Resistance in Xenografts and Improve Oral Bioavailability of Paclitaxel” (International Journal of Molecular Sciences, 2022).
Like-named read-outs stand apart in the source and are kept apart here.

Key:
[1] = molecular target: T1, P-gp (Homo sapiens, UniProt P08183); assay: Reversal of P-gp-mediated MDR in LCC6MDR cells (MTS cell viability, 5 days)
Experimental: To each well of a 96-well plate, 6500 cells of LCC6MDR were seeded in 180 μL supplemented medium. A 10 µL compound (FD18, 14a, FM04 or FM327) at different concentrations (0, 62.5, 125, 250, 500 and 1000 nM) was added to the well. […] The final volume in each well was 200 µL and the 96-well plate was incubated at 37 °C for 5 days. The cell viability was determined using the MTS assay as reported previously. The % of cell survival, IC50 of anticancer drugs towards the LCC6MDR and the EC50 of modulators were analyzed using nonlinear regression in Prism 5.0 (Prism version 5.0, GraphPad software, San Diego, CA, USA).

[2] = molecular target: T1, P-gp; design: expressed in transfected cells; host or cells: MDA435/LCC6MDR (human melanoma); details: read-out: EC50 for reversing PTX resistance; cited from earlier work
[3] = system: LCC6 cells; assay: IC50 of anticancer drugs in wild-type LCC6 with or without FM04; type: cell-based, human; details: for IC50: Homo sapiens; for RF, LCC6 + DMSO: IC50 in LCC6MDR without FM04 / IC50 in LCC6; for RF, LCC6 + 1 μM FM04: IC50 in LCC6MDR without FM04 / IC50 in LCC6 with FM04
Excerpt: Table S1. IC50 of anticancer drugs in LCC6 and LCC6MDR and P-gp modulating activity of FM04.
fold): IC50 of an anticancer drug of LCC6MDR without FM04/IC50 of an anticancer of LCC6 with or without
FM04 or LCC6MDR with FM04. N = 2 - 8 independent experiment. The IC50 values were presented as mean ±
standard error mean. /: not determined.

[4] = oral co-administration; cited from earlier work
[5] = molecular target: T2, BCRP (Homo sapiens, UniProt Q9UNQ0); assay: BCRP-modulating activity in HEK293/R2 cells (MTS); type: cell-based; details: no modulator; read-out: IC50 of Topotecan in HEK293/R2, DMSO
T2 construct: expressed in transfected cells; host or cells: HEK293/R2
T2 sequence (Q9UNQ0 1-655): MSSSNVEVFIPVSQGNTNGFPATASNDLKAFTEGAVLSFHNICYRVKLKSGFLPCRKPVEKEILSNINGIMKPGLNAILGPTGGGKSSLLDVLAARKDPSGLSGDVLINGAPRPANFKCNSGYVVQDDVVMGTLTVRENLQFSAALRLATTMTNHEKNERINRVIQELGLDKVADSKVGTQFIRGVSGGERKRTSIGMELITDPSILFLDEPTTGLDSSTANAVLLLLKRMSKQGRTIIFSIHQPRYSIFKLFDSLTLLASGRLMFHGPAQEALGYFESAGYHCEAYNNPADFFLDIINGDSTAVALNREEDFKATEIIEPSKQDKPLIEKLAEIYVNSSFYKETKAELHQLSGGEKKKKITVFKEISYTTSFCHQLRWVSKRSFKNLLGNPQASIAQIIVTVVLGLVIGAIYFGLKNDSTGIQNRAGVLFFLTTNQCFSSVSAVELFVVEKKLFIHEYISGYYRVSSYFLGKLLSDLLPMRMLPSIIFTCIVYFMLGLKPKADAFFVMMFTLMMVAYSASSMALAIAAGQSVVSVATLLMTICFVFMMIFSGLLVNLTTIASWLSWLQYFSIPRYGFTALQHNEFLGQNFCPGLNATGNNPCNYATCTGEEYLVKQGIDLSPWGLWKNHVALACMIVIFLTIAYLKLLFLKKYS
Experimental: (§1) The final volume in each well of the 96-well plate was 200 μL. The plate was then incubated for 5 days at 37 °C. The cell viability was determined using an MTS assay as reported previously.

[6] = In vivo monitoring of FD18 and its metabolites in plasma after I.V. FD18; design: species or system SD rats; details: after FD18 5 mg/kg I.V.; for AUC(0-t) / Cmax / Tmax: Sprague-Dawley, rat, iv
Experimental: Figure 3 Proposed metabolism pathway of FD18 and its metabolites formed in vivo. (A) metabolism study of FD18 was conducted on human liver microsomes (HLM) and rat liver microsomes (RLM) in vitro. Chemical structure of the 3 metabolites was predicted by LC/QTOF-MS/MS and confirmed by the synthetic compounds (Figure 2E–J). The pathways for biotransformation of FD18 into FM04 was proposed. (B) plasma concentration profile of FD18 and the in vivo formation of metabolites M1, M2 and M3. After I.V. injection of FD18 (5 mg/kg) into […], plasma was collected at 10, 30, 60, 120, 240, 420 and 600 min, respectively. The concentration of FD18 at each time point was determined by UPLC-MS/MS. Its plasma concentration was further quantified with peak area ratio of FD18 against D7-18. […] In vivo formation of metabolites M1, M2 and M3 were monitored and quantified by UPLC-MS/MS with corresponding calibration curve of 14a, FM04 and FM327. Pharmacokinetic parameter AUC was calculated by the pharmacokinetic software-Summit® PK solutions 2.0 (Summit Research Service, Ashland, Wilmington, DE, USA).
FD18 stock solution was freshly prepared in 33% Cremophor EL, 33% ethanol and 33% saline at a concentration of 9.5 mg/mL. FD18 stock solution was then diluted with saline to form a 4 mg/mL working solution for animal injection. SD rats were intravenously (I.V.) administered with FD18 at 5 mg/kg (n = 3). Blood samples (approx. 300 μL) were taken via jugular vein at 10, 30, 60, 120, 240 and 420 min post-administration. Blood samples were centrifuged at 16,100× g for 10 min to obtain plasma. Plasma samples (50 µL) were spiked with 15 μL of internal standard (IS) (D7-NBn, 10 μg/mL). Two hundred microliter of methanol was added for protein precipitation. Samples were centrifuged at 16,100× g for 10 min prior to filtering by 0.22 μm syringe filter for UPLC-MSMS analysis.
The UPLC-MS/MS system consists of an Agilent 1260 infinity UPLC interfaced with a triple quadrupole mass spectrometer (Agilent 6460) equipped with an electrospray ionization source in positive mode. Zorbax Eclipse XDB-C8 (4.6 × 150 mm, 5 µM) was used for separation. The mobile phase for chromatographic separation consisted of methanol + 0.1% formic acid (solvent B) and Milli-Q water + 0.1% formic acid (solvent A) with gradient elution of 30% solvent B to 100% solvent B in 5 min. The elution condition was allowed for equilibrium from the 7th min onward. The analysis time for each injection was 13 min. The flow rate was 0.4 mL/min. The synthetic compound D7-NBn, the deuterated benzyl form of FD18, was used as the internal standard (IS) for the quantification of the three metabolites. Multiple reaction monitoring (MRM) was set to monitor the transitions of D7-NBn [M+H]^+, FD18 [M+H]^+, M1 [M+H]^+, M2 [M+H]^+ and M3 [M+H]^+ at 731.01 > 98.1 m/z, 724.01 > 91.1 m/z, 634.01 > 114 m/z, 416.01 > 91.1 m/z and 327.01 > 239 m/z, respectively. The coefficient of determination (R^2) for 14a, FM04 and FM327 were above 0.99. The dynamic range for the metabolites in the current setting is 78 ng/mL to 2.44 ng/mL.

[7] = molecular target: T3, MRP1 (Homo sapiens, UniProt P33527); assay: MRP1-modulating activity in 2008/MRP1 cells (MTS); type: cell-based; details: no modulator; read-out: IC50 of DOX in 2008/MRP1, DMSO
T3 construct: expressed in transfected cells; host or cells: 2008/MRP1 (human ovarian cancer)
T3 sequence (P33527 whole entry): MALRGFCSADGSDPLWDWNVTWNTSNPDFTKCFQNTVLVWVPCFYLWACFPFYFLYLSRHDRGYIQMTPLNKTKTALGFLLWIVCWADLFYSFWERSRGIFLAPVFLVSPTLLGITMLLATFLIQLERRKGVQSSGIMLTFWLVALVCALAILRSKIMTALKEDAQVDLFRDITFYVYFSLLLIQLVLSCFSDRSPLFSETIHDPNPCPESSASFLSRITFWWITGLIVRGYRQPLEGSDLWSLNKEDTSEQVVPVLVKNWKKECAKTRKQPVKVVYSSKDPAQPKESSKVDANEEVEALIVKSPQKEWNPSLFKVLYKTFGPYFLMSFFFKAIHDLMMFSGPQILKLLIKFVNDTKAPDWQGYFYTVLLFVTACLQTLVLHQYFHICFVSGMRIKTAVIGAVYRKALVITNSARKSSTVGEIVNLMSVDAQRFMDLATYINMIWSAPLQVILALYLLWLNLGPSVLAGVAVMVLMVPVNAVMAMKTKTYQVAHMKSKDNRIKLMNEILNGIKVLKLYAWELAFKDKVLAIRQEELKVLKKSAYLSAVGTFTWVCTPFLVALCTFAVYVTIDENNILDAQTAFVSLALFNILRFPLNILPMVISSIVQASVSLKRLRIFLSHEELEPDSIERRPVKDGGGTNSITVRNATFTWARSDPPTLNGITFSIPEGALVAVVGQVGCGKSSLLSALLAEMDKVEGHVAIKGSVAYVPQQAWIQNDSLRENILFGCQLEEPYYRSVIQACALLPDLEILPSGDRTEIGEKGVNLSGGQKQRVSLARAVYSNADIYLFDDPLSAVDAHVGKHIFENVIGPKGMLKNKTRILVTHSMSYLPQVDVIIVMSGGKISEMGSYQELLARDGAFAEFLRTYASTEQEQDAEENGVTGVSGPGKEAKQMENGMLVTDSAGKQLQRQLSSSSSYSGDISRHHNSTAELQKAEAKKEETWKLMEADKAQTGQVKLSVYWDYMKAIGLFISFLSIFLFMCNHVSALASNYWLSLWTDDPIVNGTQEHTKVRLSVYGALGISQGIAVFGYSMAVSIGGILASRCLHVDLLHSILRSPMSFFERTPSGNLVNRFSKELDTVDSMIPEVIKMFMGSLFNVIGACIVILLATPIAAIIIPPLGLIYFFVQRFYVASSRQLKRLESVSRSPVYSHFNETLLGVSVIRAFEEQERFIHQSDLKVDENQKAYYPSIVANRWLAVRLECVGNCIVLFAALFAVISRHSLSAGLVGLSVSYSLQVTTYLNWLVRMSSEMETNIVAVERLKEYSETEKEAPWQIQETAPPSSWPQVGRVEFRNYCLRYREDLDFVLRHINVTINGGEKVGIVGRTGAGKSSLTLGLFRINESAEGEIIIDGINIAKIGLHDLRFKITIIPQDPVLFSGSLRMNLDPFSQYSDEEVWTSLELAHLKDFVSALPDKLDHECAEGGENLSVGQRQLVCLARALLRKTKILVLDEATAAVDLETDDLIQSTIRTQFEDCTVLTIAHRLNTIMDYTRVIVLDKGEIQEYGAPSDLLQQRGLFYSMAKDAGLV
Experimental: as §1

[8] = system: L929; design: method as in earlier work; details: mouse fibroblast cell line; read-out: Cytotoxicity IC50, L929; cited from earlier work
[9] = molecular target: T1, P-gp; design: expressed in transfected cells; host or cells: MDA435/LCC6MDR (human melanoma); method as in PMID 22320402; details: LCC6MDR; cited from earlier work
[10] = molecular target: T1, P-gp; assay: Intracellular DOX accumulation assay in LCC6MDR cells
[11] = LCC-6, wild-type LCC6, no modulator, read-out: IC50 of anticancer drug, LCC6 + DMSO

T1 sequence (P08183 whole entry): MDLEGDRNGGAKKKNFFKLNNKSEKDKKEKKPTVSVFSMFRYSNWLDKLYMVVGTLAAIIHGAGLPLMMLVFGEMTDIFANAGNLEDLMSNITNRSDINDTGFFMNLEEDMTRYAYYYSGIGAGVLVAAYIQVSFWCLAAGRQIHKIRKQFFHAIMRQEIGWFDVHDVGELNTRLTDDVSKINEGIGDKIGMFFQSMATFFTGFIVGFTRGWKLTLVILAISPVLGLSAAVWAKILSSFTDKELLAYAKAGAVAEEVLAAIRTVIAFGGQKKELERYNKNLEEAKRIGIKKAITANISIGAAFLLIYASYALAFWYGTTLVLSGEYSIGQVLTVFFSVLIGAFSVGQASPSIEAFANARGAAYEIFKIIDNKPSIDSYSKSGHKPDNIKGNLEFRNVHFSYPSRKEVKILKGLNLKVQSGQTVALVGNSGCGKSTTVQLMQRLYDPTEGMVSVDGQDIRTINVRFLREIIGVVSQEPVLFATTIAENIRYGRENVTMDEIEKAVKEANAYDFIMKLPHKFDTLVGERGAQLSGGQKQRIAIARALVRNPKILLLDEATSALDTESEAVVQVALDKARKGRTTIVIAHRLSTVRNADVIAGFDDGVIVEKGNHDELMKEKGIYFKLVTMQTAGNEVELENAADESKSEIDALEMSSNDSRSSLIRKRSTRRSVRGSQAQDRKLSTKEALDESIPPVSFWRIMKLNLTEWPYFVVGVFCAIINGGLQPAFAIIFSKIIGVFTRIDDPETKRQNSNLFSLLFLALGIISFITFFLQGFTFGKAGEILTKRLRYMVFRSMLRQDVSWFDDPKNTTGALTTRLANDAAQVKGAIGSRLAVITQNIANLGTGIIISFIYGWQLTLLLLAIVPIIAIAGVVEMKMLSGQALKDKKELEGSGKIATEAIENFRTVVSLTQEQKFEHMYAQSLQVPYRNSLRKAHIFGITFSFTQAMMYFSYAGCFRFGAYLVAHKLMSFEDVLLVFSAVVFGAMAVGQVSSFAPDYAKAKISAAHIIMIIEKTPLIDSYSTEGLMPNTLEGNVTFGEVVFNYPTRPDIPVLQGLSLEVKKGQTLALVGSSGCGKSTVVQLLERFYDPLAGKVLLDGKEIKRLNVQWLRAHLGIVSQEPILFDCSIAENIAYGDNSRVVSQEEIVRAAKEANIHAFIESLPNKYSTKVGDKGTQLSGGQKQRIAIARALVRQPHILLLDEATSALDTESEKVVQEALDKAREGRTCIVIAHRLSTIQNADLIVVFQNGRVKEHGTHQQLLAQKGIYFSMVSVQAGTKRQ

O=c1cc(-c2ccc(O)cc2)oc2cc(O)cc(O)c12 [apigenin]
RF (relative-fold) [1]: 1.0 | EC50 [2]: > 10000 nM

CC[C@]1(O)C[C@H]2CN(CCc3c([nH]c4ccccc34)[C@@](C(=O)OC)(c3cc4c(cc3OC)N(C=O)[C@H]3[C@@](O)(C(=O)OC)[C@H](OC(C)=O)[C@]5(CC)C=CCN6CC[C@]43[C@@H]65)C2)C1 [Vincristine, vincristine]
RF, LCC6MDR + 1 μM FM04 [1]: 68.0 | RF, LCC6MDR + DMSO [1]: 1.0 | IC50 [3, 11]: 0.71 ± 0.32 nM | RF, LCC6 + DMSO [3]: 39.3 | RF, LCC6 + 1 μM FM04 [3]: 21.5

CC(C)c1nc(CN(C)C(=O)N[C@H](C(=O)N[C@@H](Cc2ccccc2)C[C@H](O)[C@H](Cc2ccccc2)NC(=O)OCc2cncs2)C(C)C)cs1 [ritonavir]
fold enhancement of the AUC of oral PTX vs a single oral dose of PTX [4]: 2.5 fold

CC[C@@]1(O)C(=O)OCc2c1cc1n(c2=O)Cc2cc3c(CN(C)C)c(O)ccc3nc2-1 [Topotecan, topotecan]
IC50 [5]: 225 ± 32 nM

O=c1cc(-c2ccc(OCCOCCNCCOCCOc3ccc(-c4cc(=O)c5ccccc5o4)cc3)cc2)oc2ccccc12 [14a, 1,13-Bis[4′-(4H-chromen-4-on-2-yl)phenyl]-1,4,10,13-tetraoxa-7-azatridecane]
fold lower activity than FD18 in reversing PTX resistance [1]: 2.1 fold | AUC(0-t) [6]: 78.9 ng·h/mL | Cmax [6]: 18 ng/mL | Tmax [6]: 50 min | Normalized AUC (systemic exposure relative to FD18) ([6]; listed as M1): 12%

O=c1cc(-c2ccc(OCCOCCOCCOCCOc3ccc(-c4cc(=O)c5ccccc5o4)cc3)cc2)oc2ccccc12 [compound 61]
RF (relative-fold) [1]: > 28

COc1cccc2c1C(=O)c1c(O)c3c(c(O)c1C2=O)C[C@@](O)(C(=O)CO)C[C@@H]3O[C@H]1C[C@H](N)[C@H](O)[C@H](C)O1 [DOX, doxorubicin]
IC50 [7]: 616 ± 54.2 nM | RF, LCC6MDR + 1 μM FM04 [1]: 25.2 | RF, LCC6MDR + DMSO [1]: 1.0 | IC50 [3, 11]: 27 ± 4.6 nM | RF, LCC6 + DMSO [3]: 38.6

O=c1cc(-c2ccc(OCCOCCO)cc2)oc2ccccc12 [FM327, 2-(4-(2-(2-hydroxyethoxy)ethoxy)phenyl)-4H-chromen-4-one]
EC50 ([1]; EC50 needed for reversing MDR in LCC6MDR cells: PTX, LCC6MDR, PTX resistance): > 1000 nM | AUC(0-t) [6]: 49.1 ng·h/mL | Cmax [6]: 21 ng/mL | Tmax [6]: 50 min | Normalized AUC (systemic exposure relative to FD18) ([6]; listed as M3): 7%

O=c1cc(-c2ccc(OCCOCCN(CCOCCOc3ccc(-c4cc(=O)c5ccccc5o4)cc3)Cc3ccccc3)cc2)oc2ccccc12 [FD18]
IC50 [8]: 85000 ± 5000 nM | Transport substrate of P-gp [9]: substrate of P-gp | RF (relative-fold) [1]: > 68 | EC50 ([1]; EC50 for P-gp modulation, range over PTX reversal and DOX accumulation in LCC6MDR): 116 to 148 nM | AUC(0-t) [6]: 682 ng·h/mL | EC50 [10]: 116 nM

CC[C@]1(O)C[C@@H]2CN(CCc3c([nH]c4ccccc34)[C@@](C(=O)OC)(c3cc4c(cc3OC)N(C)[C@H]3[C@@](O)(C(=O)OC)[C@H](OC(C)=O)[C@]5(CC)C=CCN6CC[C@]43[C@@H]65)C2)C1 [Vinblastine, vinblastine]
RF, LCC6MDR + 1 μM FM04 [1]: 61.3 | RF, LCC6MDR + DMSO [1]: 1.0 | IC50 [3, 11]: 0.38 ± 0.14 nM | RF, LCC6 + DMSO [3]: 24.2 | RF, LCC6 + 1 μM FM04 [3]: 10.7

COc1cccc2c1C(=O)c1c(O)c3c(c(O)c1C2=O)C[C@@](O)(C(C)=O)C[C@@H]3O[C@H]1C[C@H](N)[C@H](O)[C@H](C)O1 [Daunorubicin, daunorubicin]
RF, LCC6MDR + 1 μM FM04 [1]: 6.3 | RF, LCC6MDR + DMSO [1]: 1.0 | IC50 ([3]; LCC-6, read-out: IC50 of anticancer drug, LCC6 + DMSO): 22.1 ± 2.2 nM | RF, LCC6 + DMSO [3]: 60.5

O=C1c2c(O)ccc(O)c2C(=O)c2c(NCCNCCO)ccc(NCCNCCO)c21 [Mitoxantrone, mitoxantrone]
RF, LCC6MDR + 1 μM FM04 [1]: 17.3 | RF, LCC6MDR + DMSO [1]: 1.0 | IC50 [3, 11]: 37.4 ± 11.7 nM | RF, LCC6 + DMSO [3]: 28.1
